This is an account of results in ChEMBL document CHEMBL3045004, “Design, synthesis and in vitro antibacterial and antifungal activities of some novel spiro[azetidine-2,3-indole]-2,4(1H)-dione” (2011).

In brackets after ≈: the same amount, converted by molar mass. Activity calls are given as the source filed them. The rule behind the calls is not given here.

Assay [1] relates to Aspergillus niger. Kind of assay: Antifungal activity against Aspergillus niger MTCC-343 after 3 to 4 days by serial plate dilution method. The assay is classed as functional. The conditions noted are these: for MIC: Aspergillus niger, MTCC-343.
Assay [2] relates to Candida albicans. Kind of assay: Antifungal activity against Candida albicans MTCC-183 after 3 to 4 days by serial plate dilution method. The conditions noted are these: for MIC: Candida albicans, MTCC-183. The assay is classed as functional.
Another assay relates to Pseudomonas aeruginosa. Kind of assay: Antibacterial activity against Pseudomonas aeruginosa MTCC-647 after 24 hr by disk-diffusion method. The assay is classed as functional. A general note: In agar diffusion tests the substance spreads into inoculated agar from a disc or well.
A further assay has as its system Escherichia coli. The assay is described as follows: Antibacterial activity against Escherichia coli MTCC-521 after 24 hr by disk diffusion method. The assay is classed as functional.
The next assay relates to Staphylococcus aureus. The assay is described as follows: Antibacterial activity against Staphylococcus aureus MTCC-96 after 24 hr by disk-diffusion method. Format: functional.
Assay [3] deals with Candida albicans. Kind of assay: Antifungal activity against Candida albicans MTCC-183 at >100 ug/ml after 3 to 4 days by serial plate dilution method. The assay is classed as functional, organism-based.
In assay [4] the test system is Aspergillus niger. Kind of assay: Antifungal activity against Aspergillus niger MTCC-343 at >100 ug/ml after 3 to 4 days by serial plate dilution method. Format: functional, organism-based.
Where [5] appears, read: Pseudomonas aeruginosa, MTCC-647, 24 h.
Setting [6] is: Escherichia coli, MTCC-521, 24 h.
[7] abbreviates: Staphylococcus aureus, MTCC-96, 24 h.

In general, MIC refers to the lowest concentration found to suppress growth. Low readings indicate greater potency, high ones weaker potency. `Cc1ccc(N2C(=O)C(Cl)C23C(=O)Nc2ccccc23)cc1` (stereo unspecified): the “inhibition zone (IZ)” value was found to be 22 mm with Aspergillus niger [1] and 16 mm with Candida albicans [2]. Moreover, the MIC stood at 6.25 µg/mL (≈ 20 µM) against Aspergillus niger [1]; 12.5 µg/mL (≈ 40 µM) against Candida albicans [2]; 25 µg/mL (≈ 79.9 µM) in the assay on Pseudomonas aeruginosa (setting [5]); 25 µg/mL (≈ 79.9 µM) against Escherichia coli (setting [6]); 25 µg/mL (≈ 79.9 µM) in the assay on Staphylococcus aureus (setting [7]). Besides, the “diameter of the inhibition zone (DIZ)” value in the assay with Pseudomonas aeruginosa is listed as 17 mm; in the assay on Escherichia coli, 20 mm; with Staphylococcus aureus, 19 mm.
Consider `Cc1ccccc1N1C(=O)C(Cl)C12C(=O)Nc1c(Br)cc(Br)cc12` (stereo unspecified), for which the “inhibition zone (IZ)” value in the assay on Aspergillus niger [1] stood at 17 mm; in the assay with Candida albicans [2], 19 mm. Besides, the MIC amounted to 12.5 µg/mL (≈ 26.6 µM) in the assay on Aspergillus niger [1]; 6.25 µg/mL (≈ 13.3 µM) against Candida albicans [2]; 12.5 µg/mL (≈ 26.6 µM) in the assay on Pseudomonas aeruginosa (setting [5]); 6.25 µg/mL (≈ 13.3 µM) in the assay on Escherichia coli (setting [6]); 6.25 µg/mL (≈ 13.3 µM) against Staphylococcus aureus (setting [7]). Further, the “diameter of the inhibition zone (DIZ)” value in the assay with Pseudomonas aeruginosa was 24 mm; in the assay with Escherichia coli, 23 mm; in the assay on Staphylococcus aureus, 23 mm.
`OC(Cn1cncn1)(Cn1cncn1)c1ccc(F)cc1F` [FLUCONAZOLE]: in the assay with Aspergillus niger [1], the “inhibition zone (IZ)” value is 26 mm and the MIC is 6.25 µg/mL (≈ 20.4 µM). In addition, in the assay with Candida albicans [2], the “inhibition zone (IZ)” value came to 27 mm and the MIC was determined as 6.25 µg/mL (≈ 20.4 µM).
On to `CC1(C)S[C@@H]2[C@H](NC(=O)[C@H](N)c3ccc(O)cc3)C(=O)N2[C@H]1C(=O)O` [AMOXICILLIN], for which the “diameter of the inhibition zone (DIZ)” value in the assay on Pseudomonas aeruginosa turned out to be 30 mm; with Escherichia coli, 25 mm; in the assay with Staphylococcus aureus, 29 mm. Also, the MIC against Pseudomonas aeruginosa (setting [5]), in the assay on Escherichia coli (setting [6]) and with Staphylococcus aureus (setting [7]) was 6.25 µg/mL (≈ 17.1 µM) each time.
Turning to `O=C1C(Cl)C2(C(=O)Nc3ccccc32)N1c1ccc([N+](=O)[O-])cc1` (stereo unspecified), the “inhibition zone (IZ)” value is recorded as 24 mm with Aspergillus niger [1] and 25 mm in the assay on Candida albicans [2]. Also, the MIC against Aspergillus niger [1] stood at 6.25 µg/mL (≈ 18.2 µM); in the assay on Candida albicans [2], 6.25 µg/mL (≈ 18.2 µM); against Pseudomonas aeruginosa (setting [5]) it was 25 µg/mL (≈ 72.7 µM); against Escherichia coli (setting [6]), 25 µg/mL (≈ 72.7 µM); in the assay with Staphylococcus aureus (setting [7]), 25 µg/mL (≈ 72.7 µM). The “diameter of the inhibition zone (DIZ)” value with Pseudomonas aeruginosa is given as 17 mm; in the assay on Escherichia coli, 20 mm; with Staphylococcus aureus, 19 mm.
For the compound `Cc1ccccc1N1C(=O)C(Cl)C12C(=O)Nc1ccccc12` (stereo unspecified), the “inhibition zone (IZ)” value in the assay on Aspergillus niger [1] is on record as 24 mm; in the assay on Candida albicans [2], 11 mm. Besides, the MIC with Aspergillus niger [1] was determined as 6.25 µg/mL (≈ 20 µM); against Candida albicans [2], 25 µg/mL (≈ 79.9 µM); with Pseudomonas aeruginosa (setting [5]), 25 µg/mL (≈ 79.9 µM); with Escherichia coli (setting [6]) it was 25 µg/mL (≈ 79.9 µM); in the assay with Staphylococcus aureus (setting [7]), 12.5 µg/mL (≈ 40 µM). The “diameter of the inhibition zone (DIZ)” value in the assay with Pseudomonas aeruginosa is reported as 17 mm; in the assay on Escherichia coli, 19 mm; with Staphylococcus aureus, 22 mm.
As to `CCC(C)n1ncn(-c2ccc(N3CCN(c4ccc(OCC5COC(Cn6cncn6)(c6ccc(Cl)cc6Cl)O5)cc4)CC3)cc2)c1=O` (stereo unspecified) [ITRACONAZOLE], in the assay with Aspergillus niger [1], the “inhibition zone (IZ)” value came to 25 mm and the minimal inhibitory concentration (MIC) was 6.25 µg/mL (≈ 8.86 µM). Also, in the assay on Candida albicans [2], the “inhibition zone (IZ)” value is on record as 27 mm and the MIC was 6.25 µg/mL (≈ 8.86 µM).
Regarding `O=C1C(Cl)C2(C(=O)Nc3c(Br)cc(Br)cc32)N1c1ccccc1` (stereo unspecified), the results for the “inhibition zone (IZ)” value in the assay with Aspergillus niger [1] and in the assay on Candida albicans [2] were 14 mm and 17 mm, respectively. Further, the minimal inhibitory concentration (MIC) against Aspergillus niger [1] worked out at 25 µg/mL (≈ 54.8 µM); against Candida albicans [2], 12.5 µg/mL (≈ 27.4 µM); against Pseudomonas aeruginosa (setting [5]), 12.5 µg/mL (≈ 27.4 µM); in the assay on Escherichia coli (setting [6]), 12.5 µg/mL (≈ 27.4 µM); with Staphylococcus aureus (setting [7]) it was 6.25 µg/mL (≈ 13.7 µM). Also, the “diameter of the inhibition zone (DIZ)” value is recorded as 26 mm in the assay on Pseudomonas aeruginosa, 21 mm in the assay on Escherichia coli and 24 mm with Staphylococcus aureus.
With `O=C1C(Cl)C2(C(=O)Nc3c(Br)cc(Br)cc32)N1c1ccc([N+](=O)[O-])cc1` (stereo unspecified), the figures for the “inhibition zone (IZ)” value in the assay on Aspergillus niger [1] and with Candida albicans [2] were 23 mm and 26 mm, respectively. Further, the MIC in the assay with Aspergillus niger [1], against Candida albicans [2], against Pseudomonas aeruginosa (setting [5]), with Escherichia coli (setting [6]) and against Staphylococcus aureus (setting [7]) was 6.25 µg/mL (≈ 12.5 µM) throughout. Besides, the “diameter of the inhibition zone (DIZ)” value amounted to 28 mm in the assay on Pseudomonas aeruginosa, 24 mm in the assay with Escherichia coli and 28 mm in the assay with Staphylococcus aureus.
For `O=C1C(Cl)C2(C(=O)Nc3ccccc32)N1c1ccccc1[N+](=O)[O-]` (stereo unspecified), in the assay with Candida albicans [3], the outcome was inactive. Besides, in the assay on Aspergillus niger [1], the “inhibition zone (IZ)” value turned out to be 17 mm. For the same compound, the minimum inhibitory concentration (MIC) against Aspergillus niger [1] is 12.5 µg/mL (≈ 36.4 µM); in the assay with Pseudomonas aeruginosa (setting [5]), 25 µg/mL (≈ 72.7 µM); against Escherichia coli (setting [6]), 12.5 µg/mL (≈ 36.4 µM); against Staphylococcus aureus (setting [7]), 12.5 µg/mL (≈ 36.4 µM). The “diameter of the inhibition zone (DIZ)” value in the assay with Pseudomonas aeruginosa stood at 19 mm; in the assay on Escherichia coli it was 21 mm; with Staphylococcus aureus, 17 mm.
For the compound GENTAMICIN, the MIC in the assay with Pseudomonas aeruginosa, against Escherichia coli and in the assay with Staphylococcus aureus was 6.25 µg/mL throughout.
On to `O=C1C(Cl)C2(C(=O)Nc3c(Br)cc(Br)cc32)N1c1ccccc1[N+](=O)[O-]` (stereo unspecified), for which the “inhibition zone (IZ)” value in the assay with Aspergillus niger [1] was 14 mm; with Candida albicans [2] it was 19 mm. In addition, the MIC against Aspergillus niger [1] was 25 µg/mL (≈ 49.8 µM); against Candida albicans [2], 6.25 µg/mL (≈ 12.5 µM); against Pseudomonas aeruginosa (setting [5]), 6.25 µg/mL (≈ 12.5 µM); in the assay on Escherichia coli (setting [6]), 6.25 µg/mL (≈ 12.5 µM); in the assay on Staphylococcus aureus (setting [7]), 6.25 µg/mL (≈ 12.5 µM). For the same compound, the “diameter of the inhibition zone (DIZ)” value with Pseudomonas aeruginosa is reported as 27 mm; in the assay with Escherichia coli it was 21 mm; in the assay with Staphylococcus aureus, 27 mm.
`Cc1ccc(N2C(=O)C(Cl)C23C(=O)Nc2c(Br)cc(Br)cc23)cc1` (stereo unspecified): the result in the assay on Aspergillus niger [4] was inactive. Besides, the “inhibition zone (IZ)” value with Candida albicans [2] was 16 mm. Besides, the minimal inhibitory concentration (MIC) in the assay on Candida albicans [2] stood at 12.5 µg/mL (≈ 26.6 µM); against Pseudomonas aeruginosa (setting [5]), 6.25 µg/mL (≈ 13.3 µM); against Escherichia coli (setting [6]), 12.5 µg/mL (≈ 26.6 µM); in the assay with Staphylococcus aureus (setting [7]) it was 6.25 µg/mL (≈ 13.3 µM). In addition, the “diameter of the inhibition zone (DIZ)” value with Pseudomonas aeruginosa is on record as 26 mm; in the assay with Escherichia coli, 22 mm; in the assay with Staphylococcus aureus, 24 mm.
Regarding `O=C1C(Cl)C2(C(=O)Nc3ccccc32)N1c1ccccc1` (stereo unspecified), the “inhibition zone (IZ)” value is reported as 22 mm with Aspergillus niger [1] and 23 mm with Candida albicans [2]. The MIC against Aspergillus niger [1] is 12.5 µg/mL (≈ 41.8 µM); in the assay on Candida albicans [2] it was 6.25 µg/mL (≈ 20.9 µM); in the assay with Pseudomonas aeruginosa (setting [5]), 25 µg/mL (≈ 83.7 µM); with Escherichia coli (setting [6]), 25 µg/mL (≈ 83.7 µM); with Staphylococcus aureus (setting [7]), 12.5 µg/mL (≈ 41.8 µM). Also, the “diameter of the inhibition zone (DIZ)” value in the assay with Pseudomonas aeruginosa is on record as 18 mm; in the assay on Escherichia coli it was 19 mm; with Staphylococcus aureus, 21 mm.
`CN[C@@H]1[C@H](O[C@H]2[C@H](O[C@H]3[C@H](O)[C@@H](O)[C@H](N=C(N)N)[C@@H](O)[C@@H]3N=C(N)N)O[C@@H](C)[C@]2(O)C=O)O[C@@H](CO)[C@H](O)[C@H]1O` [STREPTOMYCIN]: the figures for the “diameter of the inhibition zone (DIZ)” value in the assay on Pseudomonas aeruginosa, with Escherichia coli and in the assay with Staphylococcus aureus were 31 mm, 26 mm and 31 mm, respectively. The MIC with Pseudomonas aeruginosa (setting [5]), with Escherichia coli (setting [6]) and in the assay on Staphylococcus aureus (setting [7]) was 6.25 µg/mL (≈ 10.7 µM) throughout.
